One may read the MIC as the lowest concentration that inhibits growth of the organism. High values mean a less susceptible organism, low ones a more susceptible organism. A word on the IC50: it is the concentration at which inhibition is half-maximal.

For assay [1], the system named is Pyricularia oryzae. Put plainly: Antimicrobial activity against Pyricularia oryzae P-2b. The assay is classed as functional.
The subject of assay [2] is C2C12. Briefly: Increase in glucose consumption in mouse C2C12 cells assessed as improved glucose transformation. The assay is classed as functional, cell-based.
In assay [3] the test system is Human immunodeficiency virus 1. Briefly: Antiviral activity against HIV1 3B infected in human MT2 cells. The assay is classed as functional, organism-based. The note with it: Human immunodeficiency virus 1, 3B.

Molecules are shown by their SMILES. ≈ marks a conversion by molar mass, not a printed value.

The compound `C=C1CC[C@@H](O)[C@]2(C)CC[C@](O)(C(C)C)C[C@@H]12` came in with a minimal inhibitory concentration (MIC) in assay [1] of 16 µg/mL (≈ 67.1 µM). Regarding `C=C1CC[C@@H](O)[C@]2(C)CC[C@@H](C(C)C)C[C@@]12O`, in assay [2], the IC50 came out at 10.7 µg/mL (≈ 44.9 µM). Further, the lowest concentration to inhibit growth in assay [1] (MIC) was 20 µg/mL (≈ 83.9 µM).

As for `C=C1CC[C@@H](O)[C@]2(C)CC[C@@](O)(C(C)C)C[C@@H]12`, in assay [1], inhibition of growth (MIC) required 12 µg/mL (≈ 50.3 µM). In turn, `C=C1CC[C@@H](O)[C@]2(C)CC[C@H](C(C)C)[C@@H](O)[C@H]12` showed an IC50 in assay [3] of 10 µg/mL (≈ 42 µM).

Values taken from ChEMBL document CHEMBL1148963, “Four new eudesmanes from Caragana intermedia and their biological activities” (J Nat Prod, 2004).
